ChEMBL document CHEMBL1156829 (Proc Natl Acad Sci U S A, 2008)

Key:
Plasmodium falciparum [1] = assay: NOVARTIS: Inhibition of Plasmodium falciparum 3D7 (drug-susceptible) proliferation in erythrocyte-based infection assay; format: functional, organism-based; details: Plasmodium falciparum, 3D7
Plasmodium falciparum [2] = assay: NOVARTIS: Inhibition of Plasmodium falciparum W2 (drug-resistant) proliferation in erythrocyte-based infection assay; format: functional, organism-based; details: Plasmodium falciparum, W2; read-out: EC50
[3] = NOVARTIS: Cytotoxicity against human hepatocellular carcinoma cell line (Huh7); format: toxicity, cell-based, Huh-7; details: Huh7 cells (hepatocellular carcinoma cell line)

SMILES | EC50 (Plasmodium falciparum [1]) [µM] | EC50 (Plasmodium falciparum [2]) [µM] | CC50 [3] [µM]
COC(=O)COc1ccc(/C=C2/SC(=Nc3ccc(F)cc3)NC2=O)cc1 | > 12.5 | 1.85 | > 100
CCN(CC)CCNc1ccc(Nc2ccnc3cc4ccccc4cc23)cc1 | 0.0282 | 0.0417 | 2.36
Nc1ccc2nc(C=Cc3ccc(Cl)cc3)[nH]c2c1 | 0.58 | 0.121 | 6.9
c1ccc2cc3c(Nc4ccc(N5CCCCC5)cc4)ccnc3cc2c1 | 0.743 | 1.22 | 67.7
Oc1ccccc1CN1CCN(C(c2ccccc2)c2ccccc2)CC1 | 0.744 | 0.166 | 8.92
O=S(=O)(Oc1ccc2ccccc2c1Cc1c(OS(=O)(=O)c2ccccc2)ccc2ccccc12)c1ccccc1 | > 12.5 | 1.84 | > 100
O=C(C1CCN(c2nnnn2-c2ccccc2)CC1)N1CCc2ccccc2C1 | 1.3 | 1.79 | > 100
CCN1CCC(NCCC(c2ccccc2)c2ccccc2)CC1 | 0.28 | 0.066 | 3.61
N#Cc1ccccc1N1CCCCC1 | > 10.8 | 1.79 | > 100
O=C(O)C=CC(=O)N(C1CCCCC1)C1CCCCC1 | > 12.5 | 1.86 | > 100
O=c1c2ccccc2[nH]c2cc(Cl)ccc12 | 0.0955 | 0.178 | > 10
OCCSc1nc(-c2ccccc2)nc2ccc(F)cc12 | > 1.25 | > 0.183 | > 10
Cc1cc(C)cc(NCC(O)Cn2c3ccc(Cl)cc3c3cc(Cl)ccc32)c1 (configuration not stated) | 2.22 | 0.569 | 31.2
COCCSc1nc2sc3c(c2c(=O)n1-c1ccc(OC)cc1)CCN(C)C3 | 3.02 | 1.77 | > 100
C=CCSc1ncc(-c2ccc(Cl)cc2)n1C | > 12.5 | 1.77 | > 100
Oc1ccc(Cl)cc1CNc1nc2ccccc2[nH]1 | 0.921 | 0.768 | 43.5
O=C(Nc1ccc(-c2nc3ccccc3[nH]2)cc1)c1ccc(Cl)c(Cl)c1 | 0.523 | 1.82 | > 100
Cc1cc(C)c(NC(=S)N(CCCN2CCCCC2)Cc2cccs2)c(C)c1 | > 1.54 | 0.179 | > 10
O=C1c2ccc3c4c(ccc(c24)C(=O)N1CCCCO)C(=O)N(CCCCO)C3=O | 0.354 | 0.0774 | 4.38
CC1(C)N=C(N)N=C(N)N1c1ccc(Oc2ccc(Cl)cc2)c(Cl)c1 | 0.058 | 0.628 | 35.1
Cc1ccc(-n2nnnc2SCc2nc(-c3cccc([N+](=O)[O-])c3)no2)c(C)c1 | > 4.69 | 1.85 | > 100
N#Cc1c(N)nc(SCC(=O)c2ccc([N+](=O)[O-])cc2)c(C#N)c1-c1ccccc1 | 4.81 | 1.84 | > 100
CCCS(=O)(=O)c1c(S(=O)(=O)CCC)c2ccc(C(C)=O)cn2c1C(=O)c1ccc(C)cc1 | > 12.5 | 1.83 | > 100

SMILES | EC50 (Plasmodium falciparum [1]) [µM] | EC50 (Plasmodium falciparum [2]) [µM] | CC50 [3] [µM]
C=CCn1c(SCC(=O)Nc2ccccc2C)nc2sc(C)cc2c1=O | 4.28 | 1.8 | > 100
CCOC(=O)c1ccc(NC(=O)c2ccc3nc(NC(=O)c4ccc(C(=O)OC)cc4)sc3c2)cc1 | > 6.51 | 1.79 | > 100
Fc1ccccc1Nc1nc(NCC2CCCO2)c2ccccc2n1 (configuration not stated) | 0.669 | 0.637 | 34.2
COc1ccc(NC(=O)Cn2c(C)c(C=O)c3ccccc32)cc1 | 1.45 | 1.77 | > 100
O=C(NC(CN1CCCC1)c1ccccc1)C1CCN(S(=O)(=O)c2ccc(Cl)cc2)CC1 (configuration not stated) | 0.161 | 0.648 | 36.8
COc1cccc(-c2nc3c(OC)ccc(OC)c3cc2CNCC(C)(C)CN(C)C)c1 | 0.244 | 0.186 | > 10
CCCCCCCCC(=O)N(C)CCCNc1ccnc2cc(Cl)ccc12 | 0.321 | 0.196 | > 10.7
CN(C)c1ccc(C=C2SC(=N)N(c3nccs3)C2=O)cc1 | 5.05 | 1.83 | > 100
O=C(Nc1ccc(Br)cc1C(=O)c1ccccc1)c1cc2nc(-c3cccs3)cc(C(F)(F)F)n2n1 | > 12.5 | 1.76 | > 100
COC(=O)CNC(c1ccccc1Cl)c1cc(Br)ccc1NS(=O)(=O)c1ccc(C)cc1 (configuration not stated) | 1.93 | 1.76 | > 100
CCCCN1Cc2ccc(C(N)=O)cc2N=C1C1CC1 | 0.062 | 0.212 | > 11.4
COc1ccc(-n2c(SC(C)C)nc3sc4c(c3c2=O)CCN(C)C4)cc1 | 2.21 | 1.85 | > 100
CC(C)Cc1ccc(-c2csc(NC(=O)C3C4CCC(C4)C3C(=O)O)n2)cc1 (configuration not stated) | 0.772 | 1.85 | > 100
C=CCn1c(SCC(=O)c2cc(C)n(-c3ccccc3F)c2C)nc2sc3c(c2c1=O)CCCC3 | > 1.25 | > 0.18 | > 10
CCOC(=O)C1(CC2CCCCO2)CCN(Cc2cccc(C)n2)CC1 (configuration not stated) | > 8.37 | 1.78 | > 100
COc1ccc2c(c1)C(=NN=C(N)N)c1cc(OC)ccc1-2 | 0.123 | 0.178 | > 10
CC1CCCCN1CCCN(Cc1c2ccccc2cc2ccccc12)C(=O)c1ccccc1Cl (configuration not stated) | 0.878 | 0.0312 | > 1.74
O=C(Nc1cccc(C2=NCCN2)c1)c1ccc(C(=O)Nc2cccc(C3=NCCN3)c2)cc1 | 0.599 | 0.178 | > 10
COc1cc2nc(Nc3cccc(F)c3)nc(N)c2cc1OC | 0.148 | 0.358 | 20.1
O=C(Nc1cnc2ccccc2c1)c1cccc(-n2cnnn2)c1 | 0.174 | 0.182 | > 10
Cc1nc2ccc(NC(=O)C3CC3)cc2c(=O)n1Cc1ccc(Cl)cc1 | 1.17 | 1.82 | > 100
Oc1ccc(Br)c(C(Nc2ccccn2)c2ccc3cccnc3c2O)c1 (configuration not stated) | 0.555 | 0.281 | 15.7
CCCCCCN(C(=O)c1cccc(OC)c1)C(CC)c1nc2ccccc2c(=O)n1-c1ccc(Cl)cc1C (configuration not stated) | 1.12 | > 0.177 | > 10

SMILES | EC50 (Plasmodium falciparum [1]) [µM] | EC50 (Plasmodium falciparum [2]) [µM] | CC50 [3] [µM]
COC(=O)C1=C(C)NC2=C(C(=O)c3ccccc32)C1c1ccc(OCC#N)c(OC)c1 (configuration not stated) | 0.59 | 1.53 | 84.9
Cc1cc2c(cc1C)NC(c1ccccc1F)C1=C(CC(C)(C)CC1=O)N2 (configuration not stated) | 1.65 | 1.79 | > 100
C[N+](C)(C)c1nc(N2CCOCC2)nc(N(c2ccccc2)c2ccccc2)n1 | 0.0632 | 0.179 | > 10
Cc1nc2ccccn2c1C1(O)C(=O)Nc2c(Cl)cc(Cl)cc21 (configuration not stated) | 0.449 | 0.178 | > 10
CSc1ccc(NC(=O)N2CCCn3cccc3C2c2ccc(C(F)(F)F)cc2)cc1 (configuration not stated) | 3.99 | 1.81 | > 100
COc1ccc(C(C)=O)cc1N1C(=O)C2C(C1=O)C1(c3ccccc3)C(=O)C2(c2ccccc2)C(c2ccc(C)cc2)=C1c1ccc(C)cc1 (configuration not stated) | 2.46 | 1.79 | > 100
CC(=O)Nc1ccc(S(=O)(=O)NC2C(C)(C)C3CC[C@]2(C)C3)cc1 (some centres not stated) | > 1.25 | > 0.184 | > 10
CCOC(=O)CCC(=O)Oc1cc(C(C)(C)C)nn1-c1ccc(Cl)c(Cl)c1 | > 1.23 | 0.203 | > 11.1
Cc1ccc(C2C3=C(CC(C)(C)CC3=O)N(Cc3ccc4c(c3)OCO4)C3=C2C(=O)CC(C)(C)C3)cc1 | 3.75 | 1.77 | > 100
CCOc1ccc(C(=O)C(C)[n+]2cc(-c3ccc(OC)cc3)n3c2CCC3)cc1 (configuration not stated) | 0.506 | 0.595 | 33.2
C=CCc1c(C)nc2ccc(Br)cc2c1O | 1.6 | 1.79 | > 100
Cn1c(=O)[nH]c(=O)c2c1nc(N1CCCCCC1)n2CC(O)COc1ccc([N+](=O)[O-])cc1 (configuration not stated) | > 12.5 | 1.86 | > 100
CCCCCOC(=O)C1=C(C)NC2=C(C(=O)CC(C)(C)C2)C1c1ccncc1 (configuration not stated) | 5.19 | 1.86 | > 100
Cc1cccc(NC(=O)C2C3C=CC4(O3)C2C(=O)N(CC2COc3ccccc3O2)C4C(=O)NC2CCCC(C)C2C)c1 (configuration not stated) | > 8.07 | 1.86 | > 100
Cc1nc(C23CC4CC(CC(C4)C2)C3)cs1 | > 12.5 | 1.86 | > 100
CCOC(=O)CCC(=O)Oc1ccccc1-c1nc2ccccn2c1NC(C)(C)CC(C)(C)C | 1.06 | 0.177 | > 10
COc1cccc(CCOc2ccc3c(c2)C(=O)N(C(C(=O)NC(C)(C)C)c2cccc(OC)c2)C(CO)C(=O)N3)c1 (configuration not stated) | 0.153 | 0.169 | > 9.1
Cc1cccc(N2C(N)=NC(N)=NC2(C)C)c1 | 0.0202 | 0.0528 | 2.98
COc1ccc(OC)c(C(C(=O)NC2CCCC2)N(C(=O)c2snc(C(N)=O)c2N)c2ccccc2OC)c1 (configuration not stated) | 2.54 | 1.79 | > 100
CC(Nc1ccccc1)C(=O)Nc1cc(C(F)(F)F)ccc1Cl (configuration not stated) | 1.22 | 1.29 | 71.4
Cc1cccc(-c2nc3cc(NC(=S)NC(=O)c4ccc(Cl)cc4)ccc3o2)c1 | > 1.66 | 0.183 | > 10
CC(=O)N(C1=C(N(C)C)C(=O)c2ccccc2C1=O)c1cc(C)cc(C)c1 | 0.023 | 0.0415 | 2.23
CC(Cc1ccccc1)NCCCCCCCNC(C)Cc1ccccc1 (configuration not stated) | 0.268 | 0.105 | 5.9
